According to ChEMBL document CHEMBL5038569, “Targeting RECQL5 Functions, by a Small Molecule, Selectively Kills Breast Cancer in Vitro and in Vivo” (J Med Chem, 2021):
Activity calls are given as the source filed them. No cut-off for these calls is given here.

How the values were obtained:
[1] = Chronic toxicity in […] mouse assessed as effect on food/water uptake at 100 mg/kg, po administered as single dose via gavage measured for 30 days; type: organism-based; details: in vivo, 720 h, time 30 day
MCF7 [2] = assay: Induction of DNA damage in RECQL5 knock out human MCF7 cells assessed as double strand breaks by measuring increase in phosphorylation of p53 at S15 residue at 20 uM measured up to 24 hrs by Western blot analysis; type: functional, cell-based; details: time hrs <=24
MCF7 [3] = assay: Cytotoxicity against RECQL5 knock out human MCF7 cells expressing […] assessed as reduction in colony formation at 10 uM measured after 8 to 10 days by clonogenic survival assay; type: functional, cell-based; details: time 8-10 day
Homo sapiens = organism: Homo sapiens; assay: Inhibition of His-tagged human RECQL5 binding to [gamma 32P] labeled DNA substrate assessed as RECQL5-DNA complex formation at 10 uM preincubated for 30 mins followed by substrate addition and measured after 15 mins by gel electrophoresis and autoradiography method; details: time 45.0 min
[4] = Toxicity in nude mouse xenografted with human MCF7 cells assessed as morphological changes in lungs at 50 mg/kg, po administered via oral gavage and measured after 30 days; type: organism-based; details: in vivo, 720 h, time 30 day
MCF7 [5] = assay: Antitumor activity against RECQL5 knock out human MCF7 cells xenografted in nude mouse assessed as reduction in tumor growth at 50 mg/kg, po administered as single dose via gavage measured after 30 days; type: functional, organism-based; details: time 30.0 day
MCF7 [6] = assay: Cytotoxicity against human MCF7 cells with shRNA-mediated RECQL5 depletion assessed as reduction in cell viability at 6 to 25 uM measured after 8 to 10 days by clonogenic survival assay; type: functional, cell-based; details: dose 6-25 µM, time 8-10 day
[7] = Toxicity in […] mouse assessed as fold change in spleen cell count at 100 mg/kg, po administered as single dose via gavage measured after 30 days relative to control; type: organism-based; details: in vivo, 720 h, time 30 day
MCF7 [8] = assay: Induction of mitotic catastrophe phenotype in human cisplatin-resistant MCF7 cells assessed as fused nucleus at 20 uM pretreated with cisplatin for 8 hrs followed by compound addition and measured after 24 hrs by immunofluorescence microscopic analysis; type: functional, cell-based
[9] = Inhibition of full length His-tagged human RECQL5 expressed in Escherichia coli incubated for 15 mins by fluorescence based assay
MCF7 [10] = assay: Induction of mitotic catastrophe phenotype in human MCF7 cells assessed as micronucleus formation at 20 uM pretreated with cisplatin for 8 hrs followed by compound addition and measured after 24 hrs by immunofluorescence microscopic analysis; type: functional, cell-based
MCF7 [11] = assay: Induction of DNA damage in human MCF7 cells expressing wild type RECQL5 assessed as double strand breaks by measuring increase in phosphorylation of CHK1 at S345 residue at 20 uM measured up to 24 hrs by Western blot analysis; type: functional, cell-based; details: time hrs <=24
MCF7 [12] = assay: Cytotoxicity against human MCF7 cells expressing wild type RECQL5 assessed as inhibition of colony formation measured after 8 to 10 days by clonogenic survival assay; type: functional, cell-based
MCF7 [13] = assay: Stabilization of RECQL5-RAD51 complex in human MCF7 cells expressing wild type RECQL5 assessed as increase in accumulation of nucleus-bound RECQL5 and RAD51 at 20 uM measured after 4 to 24 hrs by Western blot analysis; type: cell-based; details: time 4-24 hrs
MCF7 [14] = assay: Induction of mitotic catastrophe phenotype in human cisplatin-resistant MCF7 cells assessed as nuclear bridge formation at 20 uM pretreated with cisplatin for 8 hrs followed by compound addition and measured after 24 hrs by immunofluorescence microscopic analysis; type: functional, cell-based
MCF7 [15] = assay: Effect on homologous recombinant repair in RECQL5 knock out human MCF7 cells assessed as accumulation of MRE11 protein on chromatin at 20 uM incubated for 4 to 24 hrs by Western blot analysis; type: functional, cell-based; details: time 4-24 hrs
MCF7 [16] = assay: Induction of apoptosis in human MCF7 cells expressing wild type RECQL5 assessed as fold increase in cell death at 20 uM measured after 72 hrs by propidium iodide/RNase A staining based flow cytometric analysis relative to control; type: functional
MCF7 [17] = assay: Cytotoxicity against human MCF7 cells expressing RECQL5-RFP wild type helicase assessed as sensitizing activity by measuring colony survival at 5 to 20 uM measured after 8 to 10 days by clonogenic survival assay; type: functional, cell-based; details: dose 5-20 µM, time 8-10 day
MCF7 [18] = assay: Induction of mitotic catastrophe phenotype in human MCF7 cells assessed as fused nucleus at 20 uM pretreated with cisplatin for 8 hrs followed by compound addition and measured after 24 hrs by immunofluorescence microscopic analysis; type: functional, cell-based
MCF7 [19] = assay: Reversal of RECQL5 knock out resistance phenotype in human MCF7 cells expressing RECQL5-RFP assessed as reduction in cell viability at 6 to 25 uM measured after 72 hrs by MTT assay; type: functional, cell-based; details: dose 6-25 µM
MCF7 [20] = assay: Induction of DNA damage in RECQL5 knock out human MCF7 cells assessed as double strand breaks by measuring increase in phosphorylation of RPA2 at 20 uM measured after 4 to 24 hrs by Western blot analysis; type: functional, cell-based; details: time 4-24 hrs
MCF7 [21] = assay: Induction of DNA damage in RECQL5 knock out human MCF7 cells assessed as double strand breaks by measuring increase in phosphorylation of ATR at S428 residue at 20 uM measured up to 24 hrs by Western blot analysis; type: functional, cell-based; details: time hrs <=24
MCF7 [22] = assay: Antitumor activity against human MCF7 cells expressing wild type RECQL5 xenografted in nude mouse assessed as reduction in tumor growth at 50 mg/kg, po administered as single dose via gavage measured after 30 days; type: functional, organism-based; details: time 30.0 day, TDE = time-dependent effect
U2OS = assay: Cytotoxicity against human U2OS cells expressing wild type RECQL5 and p53 mutant assessed as reduction in colony formation measured after 8 to 10 days by clonogenic survival assay; type: functional, cell-based; details: time 8-10 day
MCF7 [23] = assay: Inhibition of homologous recombinant repair in RECQL5 knock out human MCF7 cells expressing SceGFP/iGFP mutants assessed as I-SceI induced generation of resected double stand breaks by measuring GFP-expressing cells at 10 uM measured after 48 hrs by flow cytometry analysis; type: functional, cell-based
MDA-MB-231 [24] = assay: Cytotoxicity against ER/PR/HER2-negative human MDA-MB-231 cells expressing wild type RECQL5 and p53 mutant assessed as reduction in colony formation measured after 8 to 10 days by clonogenic survival assay; type: functional, cell-based; details: time 8-10 day
MCF7 [25] = assay: Effect on homologous recombinant repair in RECQL5 knock out human MCF7 cells assessed as accumulation of RAD50 protein on chromatin at 20 uM incubated for 4 to 24 hrs by Western blot analysis; type: functional, cell-based; details: time 4-24 hrs
MDA-MB-231 [26] = assay: Induction of apoptosis in RECQL5 depleted human MDA-MB-231 cells assessed as cell death measured after 72 hrs by propidium iodide/RNase A staining based flow cytometric analysis; type: functional
MCF7 [27] = assay: Induction of DNA damage in RECQL5 knock out human MCF7 cells assessed as double strand breaks by measuring increase in phosphorylation of ATM at S1981 residue at 20 uM measured up to 24 hrs by Western blot analysis; type: functional, cell-based; details: time hrs <=24
[28] = Drug concentration in nude mouse serum at 50 mg/kg, po administered alternative days via gavage and measured upto 4 hrs by HPLC analysis; type: ADME, organism-based; details: read-out: Drug uptake
[29] = Chronic toxicity in […] mouse assessed as change in stool texture at 100 mg/kg, po administered as single dose via gavage measured for 30 days; type: organism-based; details: in vivo, 720 h, time 30 day

## O=C(Nc1cc(C(F)(F)F)cc(C(F)(F)F)c1)N[C@@H](c1ccccc1)c1nnc(SCc2ccccc2)o1
[1]
  Activity: Non-Toxic
MCF7 [2]
  Activity: inactive
MCF7 [3]
  Activity: inactive
Homo sapiens
  inhibition: inactive
[4]
  Activity: Non-Toxic
MCF7 [5]
  Activity: inactive
MCF7 [6]
  Activity: inactive
[7]
  fold change (FC): 1.03
MCF7 [8]
  Activity: Active
[9]
  IC50: 46.3 nM
MCF7 [10]
  Activity: Active
MCF7 [11]
  Activity: Active
MCF7 [12]
  IC50: 4800 nM
MCF7 [13]
  Activity: inactive
MCF7 [14]
  Activity: Active
MCF7 [15]
  Activity: inactive
MCF7 [16]
  fold change (FC): 2.5
MCF7 [17]
  Activity: Active
MCF7 [18]
  Activity: Active
MCF7 [19]
  Activity: Active
MCF7 [20]
  Activity: inactive
MCF7 [21]
  Activity: inactive
MCF7 [22]
  Activity: Tde
U2OS
  Activity: Active
MCF7 [23]
  inhibition: inactive
MDA-MB-231 [24]
  Activity: Active
MCF7 [25]
  Activity: inactive
MDA-MB-231 [26]
  Activity: inactive
MCF7 [27]
  Activity: inactive
[28]
  concentration at 4 h: 14.8 µM
[29]
  Activity: Non-Toxic
